Entries after “also recorded” stand apart in the source; their conditions may differ.
Columns and labels:
[1] = test system: AEA uptake in primary mouse cortical neurons; assay: AEA uptake in primary mouse cortical neurons; assay type: cell-based; details: Cortical neurone
Description: (§1) All radioactivity-based AEA and 2-AG uptake and release assays performed in U937, and HMC-1 cells were carried out using two different assay formats as previously reported. AEA and 2-AG uptake assay in Neuro2a and primary mouse cortical neurons were performed with a different method disclosed in Chicca 2017.

major serine hydrolases = assay: Activity-based protein profiling (ABPP) in mouse brain membranes; assay type: biochemical; details: membranes from mouse brain
Description: ABPP experiments were performed using membrane preparations obtained from mouse brains as described earlier.

COX-2 = COX-2 (Homo sapiens, UniProt P35354); assay: COX-2 activity assay; assay type: biochemical
Chain of COX-2 (P35354 18-604): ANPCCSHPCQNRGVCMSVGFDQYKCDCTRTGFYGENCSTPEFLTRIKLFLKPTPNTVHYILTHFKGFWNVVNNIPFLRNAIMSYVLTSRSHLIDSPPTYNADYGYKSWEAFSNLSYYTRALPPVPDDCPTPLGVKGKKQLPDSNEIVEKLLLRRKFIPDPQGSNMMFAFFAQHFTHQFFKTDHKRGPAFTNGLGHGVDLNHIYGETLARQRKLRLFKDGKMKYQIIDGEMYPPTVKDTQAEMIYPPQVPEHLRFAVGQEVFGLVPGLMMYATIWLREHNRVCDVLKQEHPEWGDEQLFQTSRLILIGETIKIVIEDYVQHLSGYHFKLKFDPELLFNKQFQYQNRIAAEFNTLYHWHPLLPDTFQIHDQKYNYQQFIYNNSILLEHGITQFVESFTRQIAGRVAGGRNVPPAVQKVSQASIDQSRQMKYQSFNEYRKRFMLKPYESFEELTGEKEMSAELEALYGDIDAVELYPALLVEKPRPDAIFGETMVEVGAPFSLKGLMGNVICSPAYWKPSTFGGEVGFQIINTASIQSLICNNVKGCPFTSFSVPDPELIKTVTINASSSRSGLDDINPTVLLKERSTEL
Description: FAAH, ABHDs, MAGL and COX-2 activity assays were performed using cell homogenates, human recombinant enzymes and mouse, rat and pig brain homogenates as previously described.

[2] = test system: EC efflux and release in U937 cells; assay: EC efflux and release in U937 cells; assay type: cell-based
Description: as §1

[3] = Cell penetration (intracellular LC-MS/MS and PAMPA); assay type: in vitro ADME
Excerpt: Cell penetration was further investigated by quantifying intracellular levels of WOBE437 by LC-MS/MS and measuring its physicochemical distribution in the parallel artificial membrane permeability assay (PAMPA).

CB2 receptor = CB2 receptor (Homo sapiens, UniProt P34972); assay: CB2 receptor binding assay
Chain of CB2 receptor (P34972 whole entry): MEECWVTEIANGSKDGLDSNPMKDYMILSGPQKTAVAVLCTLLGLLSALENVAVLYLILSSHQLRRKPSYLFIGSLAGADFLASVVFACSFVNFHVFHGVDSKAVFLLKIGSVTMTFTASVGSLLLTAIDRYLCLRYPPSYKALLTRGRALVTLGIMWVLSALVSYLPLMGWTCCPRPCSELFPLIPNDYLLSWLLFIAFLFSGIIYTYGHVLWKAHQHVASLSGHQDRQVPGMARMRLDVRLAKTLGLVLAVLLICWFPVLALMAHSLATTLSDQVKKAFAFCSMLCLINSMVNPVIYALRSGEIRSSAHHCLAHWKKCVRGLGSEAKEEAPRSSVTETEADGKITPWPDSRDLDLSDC
Description: CB1 and CB2 receptor binding assays [^35S]GTPγS assays were performed as previously described. WOBE437 was profiled in more detail in an extended CNS adverse drug reaction screening panel (CEREP).

BALB/c mice [4] = assay: Tetrad test after i.p. administration; assay type: in vivo, mouse
Description: (§2) WOBE437 was initially assessed in a battery of four individual tests typically associated with CB1 receptor activation in mice (nociception, locomotion, body temperature and cataleptic behavior), collectively referred to as the “tetrad”. Dose-response experiments identified 10 mg/kg as the lowest dose to elicit a moderate but complete tetrad in BALB/c mice upon intraperitoneal (i.p.) administration (FIGS. 3A-D). […] To assess whether the WOBE437-induced effects were CB1 receptor-mediated, mice were pre-treated with the selective antagonist/inverse agonist rimonabant (SR1). […] These experiments provided a proof-of-concept for the mechanism of action of WOBE437 as a novel “indirect CB1 receptor agonist”. In subsequent studies, the effects of WOBE437 in pain, inflammatory and anxiety models were investigated. […] Both effects were reversed by SR1.
(§3) WOBE437 and RX-055 were tested in independent laboratories, in different mouse strains and in multiple (behavioral) models for cannabimimetic, analgesic, anti-inflammatory and anxiolytic-effects in wild-type and phenotypical CB1-KO mice as described in Chicca 2017.

C57BL6/N mice = assay: Holeboard (HB) test; assay type: in vivo, mouse; details: 3 mg/kg, 1 h post injection
Description: as §2, §3

C57BL6/J mice = assay: LC-MS/MS quantification of endocannabinoids, lipids and corticosterone after i.p. injection; assay type: in vivo, mouse
Description: In order to investigate whether there was a link between the in vivo pharmacological effects of WOBE437 and the inhibition of EC uptake in vitro, the levels of WOBE437, AEA, 2-AG and related lipids in different tissues were quantified by LC-MS/MS. […] The Cbrain/Cplasma ratio (Kp) of WOBE437 was 0.65 after 5 min, 1.64 after 15 min and reached 1.9 after 30 and 60 min (FIGS. 4A and 4E). The peak concentration of WOBE437 in the brain was 780±267 nM, thus being in line with the bioactive concentrations determined in cellular assays. […] Only at 15 min post-injection, WOBE437 prevented the moderate increase of 2-AG induced by DMSO (FIG. 4C). […] On the contrary, 2-AG levels increased 1.7-fold compared to vehicle at 1 h post-injection (FIG. 4G). […] Repeated administrations of WOBE437 led to a significant 3-fold increase of corticosterone in the brain, which mirrors the changes observed in plasma (FIG. 4H). In peripheral organs, WOBE437 reached peak concentrations of 5-20 nmol/g tissue, without any signs of accumulation over 7 days. […] However, EC concentrations were not affected by repeated administrations of WOBE437 in peripheral tissues. Again, corticosterone levels were increased in spleen, liver and kidney.
(§4) WOBE437, AEA, 2-AG, other lipids and hormones were quantified by LC-MS/MS in different biological matrices (cells, human whole blood, rodent tissues) as reported in Chicca 2017.

BALB/c male mice = assay: Tetrad test after oral administration; assay type: in vivo, mouse; details: 50 mg/kg p.o.
Description: The tetrad test was performed in the following order: rectal temperature, catalepsy, locomotion and analgesia. Rectal temperature was measured before (basal) and 1 h post gavage administration by using a thermocouple probe (Physitemp Instruments Inc., USA) and results were reported as the difference (Δ) between both temperatures. The bar test was used to evaluated catalepsy by placing the mouse in an imposed position with both forelimbs resting on a bar of 4 cm high; the end point of catalepsy was considered when both front limbs were removed or remained over 120 s. Locomotor activity was determined by placing the mouse on a rotarod (Erweka, Germany) at 4 rpm, the latency to fall was measured with a cut-off time of 120 s. Each mouse was previously trained to walk over the rotarod for at least 120 s. Catalepsy and locomotion were measured in three trials. Analgesia was evaluated with the hot plate test, each mouse was placed in a 54-56° C. hot plate (Thermo Scientific, USA) with a Plexiglas cylinder, the latency to first nociceptive response (paw lick or foot shake) was measured.

BALB/c mice [5] = assay: Open field test in monoarthritic mice; assay type: in vivo, mouse
Description: Potential motor changes were evaluated in an open field box (40×40×30 cm, Plexiglas). The mice were individually placed in the center and allowed to move freely for 5 min. The locomotion activity was recorded with the OpenFieldTest© and traveled distance was evaluated automatically. After every experiment, the box was cleaned with 70% ethanol to remove odors.

[6] = test system: cell lines and human whole blood; assay: NAE levels in cell lines and human whole blood; assay type: cell-based
Excerpt: as §4

[7] = 7 days of daily treatment, 10 mg/kg i.p.

CCCCCCC/C=C/C=C/C(=O)NCCc1ccc(OC)c(OC)c1 [WOBE437, (2E,4E)-N-[2-(3,4-Dimethoxyphenyl)ethyl]dodeca-2,4-dienamide]
inhibition at 1 µM ([1]; 2-7 min of incubation): 50% | inhibition at 1 µM ([1]; 10-20 min of incubation): 20 to 35% | inhibition of major serine hydrolases (ABPP) (major serine hydrolases): does not inhibit any of the major serine hydrolases | inhibition of COX-2 activity (COX-2): did not inhibit | inhibition of EC release [2]: 20% | effect on EC release ([2]; cells stimulated with ATP, thapsigargin and ionomycin): blocked the release of both ECs | effect on AEA efflux ([2]; pre-loaded U937 cells): inhibited the efflux of AEA | cell membrane penetration [3]: does not significantly penetrate cell membranes | Ki (CB2 receptor): 48 µM | tetrad response (BALB/c mice [4]; 3 mg/kg): ineffective | tetrad response (BALB/c mice [4]; 10 mg/kg): full tetrad response | tetrad in CB1 receptor-deficient littermates (BALB/c mice [4]; C57BL6/N background): completely absent | tetrad effects after pre-treatment with rimonabant (SR1) (BALB/c mice [4]; hypothermia, catalepsy and antinociception): completely blocked by SR1 | hypothermia, catalepsy and antinociception compared to (R)-WIN55,212-2 (BALB/c mice [4]; i.p.): significantly less pronounced | lowest dose to elicit a complete tetrad (BALB/c mice [4]; i.p., BALB/c mice): 10 mg/kg | head dipping frequency (C57BL6/N mice): significantly increased | brain 2-AG level increase compared to vehicle (DMSO) (C57BL6/J mice; [7]): 1.5 fold | brain AEA level increase compared to vehicle (DMSO) (C57BL6/J mice; [7]): 1.5 fold | circulating concentration of corticosterone (C57BL6/J mice; after 7 days): doubled | concentrations of other lipids (NAEs, AA, prostaglandins and progesterone) (C57BL6/J mice; brain, plasma and peripheral organs): not significantly altered | increase of corticosterone levels in brain, plasma and peripheral organs (C57BL6/J mice; repeated administration): 2-4 fold | increase of corticosterone in the brain (C57BL6/J mice; repeated administrations): 3 fold | EC concentrations in peripheral tissues (C57BL6/J mice; repeated administrations, 10 mg/kg): not affected; also recorded: did not significantly alter | AEA and 2-AG levels in plasma (C57BL6/J mice; single and repeated injection(s)): not significantly affected | 2-AG levels in peripheral organs (C57BL6/J mice; single injection): not altered in the spleen, but dropped significantly after 60-360 min in liver and kidney | AEA level in peripheral organs (C57BL6/J mice; single injection): did not change in liver, whereas in kidney and spleen it moderately diminished | brain AEA levels compared to basal level (C57BL6/J mice; single injection): did not change | brain 2-AG level increase compared to vehicle (C57BL6/J mice; single injection 10 mg/kg i.p., 1 h post-injection): 1.7 fold | antinociception in tetrad (BALB/c male mice): significant antinociception | body temperature, catalepsy or motor coordination vs vehicle (BALB/c male mice): No statistical differences | latency of catalepsy (BALB/c male mice; 1 h, control 5.9±5.4): 10.5 ± 10.6 s | change in body temperature (BALB/c male mice; 1 h, control +0.1±0.8): −0.8±0.8 °C | spontaneous motor activity (BALB/c mice [5]): without significant observable changes | levels of other NAEs [6]: without altering the levels of other NAEs

Source: patent publication US10414721B1, “Inhibitor of endocannabinoid cellular reuptake” (University of Bern, priority 2018, dated 2019)
